# “Also recorded” adds a separate entry of the source.
# Tested on: Cell Growth
# Assay: Inhibition of Cell Growth (ICG) as marker for cytotoxicity / biological reactivity
# Assay type: cell-based
# Excerpt: FIG. 1 is a diagram showing the relation ship between Inhibition of Cell Growth (ICG) and concentration of 3,4-DGE in a solution.
# In order to investigate and come up with the present invention, the present inventors studied the relationship between the different GDPs and came to the conclusion that the GDPs interact according to the reaction formula given above.
compound,measurement,setting,value
"O=CC(=O)C=CC(O)CO (centres unmarked) [3,4-DGE, 3,4-dideoxyglucosone-3-ene]","relationship between concentration of 3,4-DGE and Inhibition of Cell Growth (ICG)","FIG. 1, ICG used as measure/marker for biological reactivity","good dose relation between 3,4-DGE and cytotoxicity; also recorded: dose dependent relationship"
same,toxicity compared with the other known GDPs,"known GDPs: acetaldehyde, formaldehyde, glyoxal, methylglyoxal, 3-DG, 5-HMF",mast toxic of the known GDPs
